Measurements from PubChem BioAssay (NCI).
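Following 48 hours of exposure in 96-well plates, responses at five concentrations were used to interpolate endpoints linearly. GI50: concentration for 50% inhibition of growth. TGI is the concentration that stops growth completely.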

What was measured:
Test in all cases: growth of human tumour cells (NCI), 48 h
SF-295 CNS = system: SF-295 CNS
SK-MEL-5 melanoma = system: SK-MEL-5 melanoma
M14 melanoma = system: M14 melanoma
DU-145 prostate = system: DU-145 prostate
HS 578T breast = system: HS 578T breast
A498 renal = system: A498 renal
SK-MEL-2 melanoma = system: SK-MEL-2 melanoma
T-47D breast = system: T-47D breast
MALME-3M melanoma = system: MALME-3M melanoma
A549 NSCLC = system: A549 NSCLC

SMILES	GI50 (SF-295 CNS) [nM]	TGI (SF-295 CNS) [µM]	GI50 (SK-MEL-5 melanoma) [nM]	TGI (SK-MEL-5 melanoma) [µM]	GI50 (M14 melanoma) [nM]	TGI (M14 melanoma) [µM]	GI50 (DU-145 prostate) [µM]	TGI (DU-145 prostate) [µM]	GI50 (HS 578T breast) [µM]	TGI (HS 578T breast) [µM]	GI50 (A498 renal) [µM]	TGI (A498 renal) [µM]	GI50 (SK-MEL-2 melanoma) [µM]	TGI (SK-MEL-2 melanoma) [µM]	GI50 (T-47D breast) [nM]	TGI (T-47D breast) [µM]	GI50 (MALME-3M melanoma) [nM]	TGI (MALME-3M melanoma) [µM]	GI50 (A549 NSCLC) [µM]	TGI (A549 NSCLC) [µM]
Nc1[nH]nc2nc(-c3cc(Cl)ccc3Cl)cc(-c3ccc(F)cc3)c12	25700	73.4	16600	34.1	27900	49.8	23.6	53.8	24.1	53.7	20.4	42.2	21.2	43.2	20200	> 100	27200	59.3	22.9	87.3
CC12OC(CC(O)C1O)n1c3ccccc3c3c4c(c5c6ccccc6n2c5c31)C(=O)N(CCN1CCOCC1)C4=O (stereo unspecified)	598	3.17	791	2.87	912	4.54	0.949	6.1	1.92	10.2	0.838	3.27	2.18	10.6	651	3.84	921	5.27	0.4	2.35
C[C@@H](Nc1cc(F)cc(F)c1)c1cc(C(=O)N(C)C)cc2c(=O)cc(N3CCOCC3)oc12	1230	59.9	22100	> 76.8	24300	> 100	33.1	> 100	0.693	23.6		< 0.0203	25.8	> 100	315	6.94	7120	> 84.9	7.43	> 100
COc1cc2c(cc1OC)C(C(CCCCCC(CCC(C)C)C1NCCc3cc(OC)c(OC)cc31)CCC(C)C)NCC2 (stereo unspecified)	1640	3.43	1650	3.04	449	1.51	1.19	2.55	1.42	3.43	1.51	2.99	2.1	3.72	1440	3.06	2010	4.03	0.98	2.44
CN(C)c1ccc(/C=C(\C#N)c2cc3ccccc3[nH]2)cc1	610	7.33	1360	32.8	551	> 100	3.41	35.4	1.63	9.49	0.391	6.61	0.454	> 100	585	> 100	2320	> 100	1.55	> 100
C=C1c2nc3ccccc3n2C=C(c2cccc(Cl)c2)N1Cc1ccc(OC)cc1	1420	6.91	276	3.55	589	> 44.2	1.8	> 53.5	0.565	> 100	9.33	60.4	0.636	68	2550	> 80.4	717	72	3.98	> 100
COc1ccc(OC)c(Nc2nc3nonc3nc2Nc2cccc(Br)c2)c1	429	3.29	297	1.57	1500	44.7	3.4	> 100	0.807	8.14	0.461	4.11	0.509	3.84	285	2.17	471	5.52	0.713	> 100
Oc1ccc2c(=S)cc(-c3ccc(Br)cc3)oc2c1O	4010	29.8	1790	3.95	2010	6.56	2.67	> 100	6.69	> 100	2.15	7.46	2.27	6.76	1270	5.15	1870	6.06	3.26	
Cc1ccc(N(C=O)c2c([N+](=O)[O-])cc([N+](=O)[O-])c3c2=[N+]([O-])CN=3)cc1		> 100		30.1		44.8		72.9		> 100		> 100		42.2		39.7		43.1		> 100
O=C1C=C(NCCO)c2nccc3c2c1nc1ccccc13	18500	> 100	16300	35	17300	58.7	24.8	> 100	25.5	> 100	38.2	> 100	27.7	88.2	46200	> 100	17400	49	16.4	> 100
C[C@]12CC[C@H](O[C@@H]3O[C@H](CO[C@@H]4O[C@H](CO)[C@@H](O)[C@H](O)[C@H]4O)[C@@H](O)[C@H](O)[C@H]3O)C[C@@H]1CC[C@@H]1[C@@H]2CC[C@]2(C)[C@@H](C3=CC(=O)OC3)CC[C@]12O		> 31.6		8.52		62.9		26.4		> 100		70		> 94		> 95.7		38.1		15.9
O=C(Nc1ccncc1)C(=O)c1cn(S(=O)(=O)c2cccc(Cl)c2)c2ccccc12	2920	37.1	3610	39.5	4090	32.6	10.9	> 100	77.1	> 100	25.4	> 100	11	> 100	9080	> 100	18700	> 100	22.4	> 100
CC1=CC(=O)N(c2cccc3c(N4C(=O)C=C(C)C4=O)cccc23)C1=O	> 46700	> 71.5	15500	36.3	3900	19.5	4.08	14.4	18.6	> 100	26.6	56.5	31.5	> 100	2070	9.12	3130	9.33	32.5	> 100
COc1ccc(Oc2nc3cc(N)cc(N)c3nc2-c2ccccc2)cc1	23400	52.4	44600	> 100	> 100000	> 100	69.4	> 100	24.3	> 100	49.3	> 100	25.1	87.5	15300	97.3		> 100	37.4	> 100
Cc1sc(C(=O)c2cncnc2N[C@@H]2C[C@H](COS(N)(=O)=O)[C@@H](O)C2)cc1[C@@H]1NCCc2ccc(Cl)cc21	11000	23.2	1940	17.3	572	21.6	13.2	27.8	6.08	44	4.26	20.2	5.58	23.9	2370	29.3	39.4	15.5	2.21	22.3
Cn1ncc(C#N)c1-c1ccc2c(c1)CN([C@H](CN)Cc1cccc(F)c1)C2=O	503	24.9	12100	24.9	14200	57.1	21.3	> 100	0.322	11.4	0.157	1.39	16.6	44.8	51.9	6.74	1330	11.3	5.34	> 100
c1ccc(-c2[nH]ncc2-c2ccnc(-c3ccc(OCCN4CCOCC4)cc3)c2)nc1	> 25000	> 25	> 25000	> 25	> 25000	> 25	> 25	> 25	> 25	> 25	> 25	> 25	> 25	> 25	> 25000	> 25	> 25000	> 25	> 25	> 25
C=C1C(=O)O[C@H]2[C@H]1CC/C(COC(=O)c1cccnc1N)=C\CC[C@@]1(C)O[C@@H]21	4150	16	2900	12.5	1120	3.59	2.45	12.7	4.15	65.1	2.56	7.27	3.16	12.5	1850	8.01	1910	6.65	3.77	16.5
CNC(=O)ON(C(C)=O)C(=O)NC		267		107	> 83200	41		135	49.9	216		211	38.3	98.5		33.5	> 78600	129		283
Cc1ccc(/C=N/NC(=O)c2ccccc2Oc2ccccc2)o1	27900	> 100	16400	33.3	40500	> 100	73.2	> 100	46.9	> 100	> 58.5	> 100	25.5	> 90.9	34900	> 100	36800	> 100	43.5	> 100
CN1CCN(CCCNC(=O)c2c3c(n4ccccc24)C(=O)c2ncccc2C3=O)CC1	1250	13.1	547	1.54	1210	2.6	1.6	9.37	5.32	51.8	10	25.1	2.67	11.4	1880	5.28	376	0.99	1.26	5.48
NC(=O)c1c(NC(=O)c2cccs2)sc2c1CCC(=O)C2	2860	9.42	1620	3.19	3730	> 100	4.13	> 100	3.27	> 100	6	52.9	2.71	7.78	2050	> 100	1850	4.58	3.5	> 100
CCN1CCN(c2nc(C)cc(NCc3cc(Nc4ccnc5cc(Cl)ccc45)ccc3F)n2)CC1	1050	2.61	1700	3.12	1450	3.12	3.23	12.1	1.72	5.29	1.94	4.01	2.12	4.1	1730	5.07	1780	3.66	3.54	13.9
CCN(CC)CCNC(=O)c1cccc2c1-c1ccccc1C2=O	> 100000	> 100	> 100000	> 100	> 100000	> 100	> 100	> 100	> 100	> 100	> 100	> 100	> 100	> 100	> 100000	> 100	> 100000	> 100	> 100	> 100
O/N=C(\CC(O)(C(F)(F)F)C(F)(F)F)c1cccs1		> 10		> 10		> 10		> 10		> 10		> 10		> 10		> 10		> 10		> 10
